Consider nine compounds from ChEMBL document CHEMBL4418302, “C-myc ligands capable of dimerizing in an aqueous solution, and methods of using same” (2016).

Experiment [1] concerns Daudi. Kind of experiment: Antiproliferative activity against human Daudi cells up to 30 uM incubated for 3 days by Cell-Titer 96 aqueous one solution cell proliferation assay. Type of experiment: functional, cell-based.
The subject of experiment [2] is K562. Kind of experiment: Antiproliferative activity against human K562 cells up to 30 uM incubated for 3 days by Cell-Titer 96 aqueous one solution cell proliferation assay. It is filed as functional, cell-based.
For experiment [3], the system named is MV4-11. Kind of experiment: Antiproliferative activity against human MV411 cells up to 30 uM incubated for 3 days by Cell-Titer 96 aqueous one solution cell proliferation assay. Type of experiment: functional, cell-based.
Experiment [4] addresses Myc proto-oncogene protein (Homo sapiens, UniProt P01106). Nature of the experiment: Binding affinity to recombinant full-length DDK-tagged human c-Myc expressed in HEK293T cells assessed as inhibition of Max/c-Myc protein-protein interaction incubated for 1 hr by ELISA. It is filed as cell-based. A general note: An ELISA detects its analyte on a solid surface through an enzyme-linked reagent.

In experiment [5] the test system is MV4-11. Kind of experiment: Antiproliferative activity against human MV411 cells incubated for 3 days by Cell-Titer 96 aqueous one solution cell proliferation assay. The following applies: MV4-11, 72 h. Type of experiment: functional, cell-based.
The subject of experiment [6] is Daudi. Kind of experiment: Antiproliferative activity against human Daudi cells incubated for 3 days by Cell-Titer 96 aqueous one solution cell proliferation assay. As to conditions: 72 h. It is filed as functional, cell-based.
Experiment [7] concerns K562. Kind of experiment: Antiproliferative activity against human K562 cells incubated for 3 days by Cell-Titer 96 aqueous one solution cell proliferation assay. Type of experiment: functional, cell-based. As to conditions: K562, 72 h.

The source made the active and inactive calls. No cut-off for these calls is given here. Where only a bound is given, the exact number is not on record here.

Myc proto-oncogene protein, sequence (P01106 whole entry): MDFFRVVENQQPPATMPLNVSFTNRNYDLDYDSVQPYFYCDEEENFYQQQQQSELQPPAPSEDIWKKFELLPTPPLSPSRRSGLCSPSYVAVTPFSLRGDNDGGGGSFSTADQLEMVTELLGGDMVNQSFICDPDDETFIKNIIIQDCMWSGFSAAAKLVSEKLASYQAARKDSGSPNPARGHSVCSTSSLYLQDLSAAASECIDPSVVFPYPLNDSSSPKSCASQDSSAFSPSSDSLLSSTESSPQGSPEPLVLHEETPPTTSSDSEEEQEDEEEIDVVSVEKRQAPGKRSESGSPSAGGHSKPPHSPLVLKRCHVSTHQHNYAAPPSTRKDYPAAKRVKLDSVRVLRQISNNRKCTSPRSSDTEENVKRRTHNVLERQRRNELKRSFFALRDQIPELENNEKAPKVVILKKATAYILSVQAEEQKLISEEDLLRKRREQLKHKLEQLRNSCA

On to `O=C(NCc1ccc(B(O)O)cc1)c1ccc(Nc2ccc([N+](=O)[O-])c3nonc23)cc1`, for which the outcome in the experiment on Daudi [1], in the experiment on K562 [2] and with MV4-11 [3] was inactive.

In general, IC50 refers to the concentration needed to halve the response being measured. With `CCc1ccc(/C=C2\SC(=O)N(CC[C@H]3C[C@H]4C=C[C@@H]3C4)C2=O)cc1` (single isomer, unassigned), the IC50 in experiment [4] is greater than 30 µM.

Regarding `CCc1ccc(/C=C2\SC(=O)NC2=O)cc1`, the IC50 in experiment [4] was greater than 30 µM.

Turning to `NC(=O)c1ccccc1Nc1ccc([N+](=O)[O-])c2nonc12`, the IC50 in experiment [4] was greater than 30 µM.

As for `O=C(NCc1cccc(B(O)O)c1)c1ccccc1Nc1ccc([N+](=O)[O-])c2nonc12`, the outcome with Daudi [1], with K562 [2] and with MV4-11 [3] was inactive. Besides, the IC50 with MV4-11 [5], with Daudi [6] and in the experiment with K562 [7] was greater than 30 µM throughout.

Regarding `CCc1ccc(/C=C2\SC(=O)N(CCNC(=O)[C@H]3C[C@H]4C=C[C@@H]3C4)C2=O)cc1`, the IC50 in experiment [4] is greater than 30 µM.

For `O=C(NCc1ccc(B(O)O)cc1)c1ccccc1Nc1ccc([N+](=O)[O-])c2nonc12`, the result in the experiment with Daudi [1], in the experiment on K562 [2] and in the experiment with MV4-11 [3] was inactive. For the same compound, the IC50 (in experiment [4]; in the experiment with MV4-11 [5]; in the experiment on Daudi [6]; with K562 [7]) was greater than 30 µM in each case.

Take `CCc1ccc(/C=C2\SC(=O)N(CC[C@H]3C[C@@H]4C[C@H]3[C@@H](O)[C@H]4O)C2=O)cc1`: in experiment [4], the IC50 is greater than 30 µM.

On to `CCc1ccc(/C=C2\SC(=O)N(CCNC(=O)[C@H]3C[C@@H]4C[C@H]3[C@@H](O)[C@H]4O)C2=O)cc1`, for which the result with Daudi [1], in the experiment on K562 [2] and in the experiment with MV4-11 [3] was inactive. For the same compound, the IC50 (in experiment [4]; in the experiment with MV4-11 [5]; in the experiment on Daudi [6]; in the experiment with K562 [7]) was greater than 30 µM in each case.
